Test results reported in ChEMBL document CHEMBL5257106, “Design, synthesis, and biological evaluation of novel HDAC inhibitors with a 3-(benzazol-2-yl)quinoxaline framework” (Bioorg Med Chem Lett, 2023).
Calls of active or inactive are those of the source. The rule behind the calls is not given here.

Tests used:
HCT-116 [1] = assay: Induction of apoptosis in human HCT-116 cells assessed as early apoptotic cells at 0.5 uM incubated for 24 hrs by Annexin V-FITC/PI staining based flow cytometry analysis (reference value: 6.50%); type: functional
HCT-116 [2] = assay: Induction of apoptosis in human HCT-116 cells assessed as total apoptotic cells at 1 uM incubated for 24 hrs by Annexin V-FITC/PI staining based flow cytometry analysis (reference value: 6.823%); type: functional
HCT-116 [3] = assay: Induction of apoptosis in human HCT-116 cells assessed as late apoptotic cells at 1 uM incubated for 24 hrs by Annexin V-FITC/PI staining based flow cytometry analysis (reference value: 0.323%); type: functional
PANC-1 = assay: Antiproliferative activity against human PANC-1 cells assessed as inhibition of cell growth by MTT assay; type: functional, cell-based
HL-60 [4] = assay: Potency index, ratio of SAHA IC50 to test compound IC50 for antiproliferative activity against human HL-60 cells assessed as inhibition of cell growth by MTT assay; type: functional
[5] = molecular target: T1, Protein deacetylase HDAC6 (Homo sapiens, UniProt Q9UBN7); assay: Inhibition of HDAC6 (unknown origin)
T1 sequence (Q9UBN7 whole entry): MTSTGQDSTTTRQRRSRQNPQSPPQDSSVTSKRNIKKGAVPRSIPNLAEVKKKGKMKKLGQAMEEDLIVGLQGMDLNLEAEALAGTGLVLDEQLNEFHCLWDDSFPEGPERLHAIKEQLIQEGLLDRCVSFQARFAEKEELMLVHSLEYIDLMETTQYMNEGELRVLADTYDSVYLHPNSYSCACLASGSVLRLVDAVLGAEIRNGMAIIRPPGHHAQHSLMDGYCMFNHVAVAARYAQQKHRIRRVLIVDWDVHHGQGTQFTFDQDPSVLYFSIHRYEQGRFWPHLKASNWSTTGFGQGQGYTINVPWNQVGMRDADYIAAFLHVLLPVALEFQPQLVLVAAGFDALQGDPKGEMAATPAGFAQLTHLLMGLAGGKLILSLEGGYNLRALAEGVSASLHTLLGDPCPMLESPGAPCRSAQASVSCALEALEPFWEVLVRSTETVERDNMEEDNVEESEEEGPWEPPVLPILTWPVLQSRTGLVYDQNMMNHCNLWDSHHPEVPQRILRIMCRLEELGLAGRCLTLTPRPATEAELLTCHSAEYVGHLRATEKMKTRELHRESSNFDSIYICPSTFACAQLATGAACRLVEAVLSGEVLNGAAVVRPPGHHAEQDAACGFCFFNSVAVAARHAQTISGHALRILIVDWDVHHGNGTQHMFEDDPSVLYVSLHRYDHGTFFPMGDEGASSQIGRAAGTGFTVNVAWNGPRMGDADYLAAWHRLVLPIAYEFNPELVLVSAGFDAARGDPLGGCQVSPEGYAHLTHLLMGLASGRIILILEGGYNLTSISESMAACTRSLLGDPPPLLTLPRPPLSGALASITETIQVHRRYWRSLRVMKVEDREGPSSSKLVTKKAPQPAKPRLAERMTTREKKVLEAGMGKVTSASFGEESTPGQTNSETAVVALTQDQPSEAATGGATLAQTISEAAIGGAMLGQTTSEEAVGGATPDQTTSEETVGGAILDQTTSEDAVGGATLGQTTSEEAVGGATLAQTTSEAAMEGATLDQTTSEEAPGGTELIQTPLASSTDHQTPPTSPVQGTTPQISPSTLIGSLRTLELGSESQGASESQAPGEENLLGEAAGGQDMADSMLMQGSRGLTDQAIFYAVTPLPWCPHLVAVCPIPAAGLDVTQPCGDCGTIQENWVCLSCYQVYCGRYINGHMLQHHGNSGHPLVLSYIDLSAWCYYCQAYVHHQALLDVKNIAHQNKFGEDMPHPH

HL-60 [6] = assay: Antiproliferative activity against human HL-60 cells assessed as inhibition of cell growth by MTT assay; type: functional, cell-based
HCT-116 [7] = assay: Induction of cell cycle arrest in human HCT-116 assessed as decrease in G0/G1 phase cells at 1 uM incubated for 48 hrs by flow cytometric analysis (reference value: 63.51%); type: functional; design: scale not given: the % may be the effect or the level left
HCT-116 [8] = assay: Induction of apoptosis in human HCT-116 cells assessed as increase in Bax protein expression at 0.5 to 1 uM incubated for 24 hrs by Western blot analysis; type: functional, cell-based; conditions: dose 0.5-1 µM
K562 = assay: Antiproliferative activity against human K562 cells assessed as inhibition of cell growth by MTT assay; type: functional, cell-based
HCT-116 [9] = assay: Induction of cell cycle arrest in human HCT-116 assessed as increase in G2/M phase cells at 0.5 uM incubated for 48 hrs by flow cytometric analysis (reference value: 23.70%); type: functional
HCT-116 [10] = assay: Induction of cell cycle arrest in human HCT-116 assessed as S phase cells at 1 uM incubated for 48 hrs by flow cytometric analysis (reference value: 12.79%); type: functional
HCT-116 [11] = assay: Induction of apoptosis in human HCT-116 cells assessed as upregulation of cleaved PARP expression at 0.5 to 1 uM incubated for 24 hrs by Western blot analysis; type: functional, cell-based; conditions: dose 0.5-1 µM
A2780 = assay: Antiproliferative activity against human A2780 cells assessed as inhibition of cell growth by MTT assay; type: functional, cell-based
HCT-116 [12] = assay: Induction of apoptosis in human HCT-116 cells assessed as activation of caspase pathway incubated for 24 hrs by Western blot analysis; type: functional, cell-based; conditions: dose 0.5-1 µM
HCT-116 [13] = assay: Inhibition of cell migration in human HCT-116 cells measured upto 12 hrs by wound healing assay; type: functional, cell-based; conditions: dose 0.5-1 µM
HCT-116 [14] = assay: Induction of apoptosis in human HCT-116 cells assessed as necrotic cells at 1 uM incubated for 24 hrs by Annexin V-FITC/PI staining based flow cytometry analysis (reference value: 0.00%); type: functional
Histone deacetylase 3 = Histone deacetylase 3 (Homo sapiens, UniProt O15379); assay: Inhibition of HDAC3 (unknown origin)
Histone deacetylase 4 = Histone deacetylase 4 (Homo sapiens, UniProt P56524); assay: Inhibition of HDAC4 (unknown origin)
Histone deacetylase 4, sequence (P56524 whole entry): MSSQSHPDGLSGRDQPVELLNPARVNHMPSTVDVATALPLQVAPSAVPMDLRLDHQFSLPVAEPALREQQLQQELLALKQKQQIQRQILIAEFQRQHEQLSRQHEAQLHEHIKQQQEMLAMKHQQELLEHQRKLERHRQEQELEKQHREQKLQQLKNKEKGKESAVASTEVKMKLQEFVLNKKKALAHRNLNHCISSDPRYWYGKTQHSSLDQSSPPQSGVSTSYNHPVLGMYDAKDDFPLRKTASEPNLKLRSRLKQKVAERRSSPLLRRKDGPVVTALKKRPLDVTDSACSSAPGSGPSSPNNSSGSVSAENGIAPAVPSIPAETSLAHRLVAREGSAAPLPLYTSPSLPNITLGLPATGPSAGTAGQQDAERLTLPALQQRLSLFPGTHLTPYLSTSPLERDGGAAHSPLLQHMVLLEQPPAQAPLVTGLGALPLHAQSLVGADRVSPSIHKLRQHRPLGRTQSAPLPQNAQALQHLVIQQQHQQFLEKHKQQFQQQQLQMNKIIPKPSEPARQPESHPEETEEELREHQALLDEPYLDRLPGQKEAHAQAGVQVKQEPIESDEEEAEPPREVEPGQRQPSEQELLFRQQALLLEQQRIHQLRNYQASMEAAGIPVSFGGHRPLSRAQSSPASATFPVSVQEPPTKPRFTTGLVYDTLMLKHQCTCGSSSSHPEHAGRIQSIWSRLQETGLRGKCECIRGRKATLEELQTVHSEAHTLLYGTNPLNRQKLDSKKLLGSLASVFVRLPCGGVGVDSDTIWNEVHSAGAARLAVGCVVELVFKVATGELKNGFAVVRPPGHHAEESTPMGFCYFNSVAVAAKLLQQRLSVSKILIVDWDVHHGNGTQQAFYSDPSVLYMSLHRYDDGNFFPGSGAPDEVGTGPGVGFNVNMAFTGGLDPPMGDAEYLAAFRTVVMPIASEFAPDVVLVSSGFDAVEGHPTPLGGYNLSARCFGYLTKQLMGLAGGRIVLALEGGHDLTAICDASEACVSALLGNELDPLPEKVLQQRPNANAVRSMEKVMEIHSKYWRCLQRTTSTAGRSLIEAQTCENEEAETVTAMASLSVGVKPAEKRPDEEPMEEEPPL

Histone deacetylase 3, sequence (O15379 whole entry): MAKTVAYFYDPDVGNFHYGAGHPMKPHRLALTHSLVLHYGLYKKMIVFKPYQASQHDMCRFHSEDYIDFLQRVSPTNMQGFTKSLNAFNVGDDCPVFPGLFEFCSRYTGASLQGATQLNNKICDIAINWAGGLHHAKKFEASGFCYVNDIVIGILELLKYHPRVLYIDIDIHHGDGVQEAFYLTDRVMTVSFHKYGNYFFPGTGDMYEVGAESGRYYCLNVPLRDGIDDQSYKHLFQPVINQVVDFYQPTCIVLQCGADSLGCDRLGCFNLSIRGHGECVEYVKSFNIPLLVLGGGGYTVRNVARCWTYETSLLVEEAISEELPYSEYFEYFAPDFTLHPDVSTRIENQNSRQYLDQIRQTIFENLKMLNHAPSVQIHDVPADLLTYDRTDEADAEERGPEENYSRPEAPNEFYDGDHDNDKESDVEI

IC50 (PANC-1): 1030 nM | IC50 [5]: 44.7 nM | IC50 (HL-60 [6]): 890 nM | IC50 (K562): 890 nM | IC50 (A2780): 1760 nM | IC50 (Histone deacetylase 3): 15.5 nM | IC50 (Histone deacetylase 4): 15.5 nM
SMILES: O=C(CCCCCCNc1nc2ccccc2nc1-c1nc2ccccc2o1)NO
Activity (HCT-116 [1]): 28.1% | Activity (HCT-116 [2]): 51.8% | Activity (HCT-116 [3]): 17.3% | Ratio IC50 (HL-60 [4]): 2 | Activity (HCT-116 [7]): 46.57% | Activity (HCT-116 [8]): Active | Activity (HCT-116 [9]): 36.67% | Activity (HCT-116 [10]): 13.79% | Activity (HCT-116 [11]): Active | Activity (HCT-116 [12]): Dose-Dependent Effect | inhibition (HCT-116 [13]): Dose-Dependent Effect | Activity (HCT-116 [14]): 0.103%
